Assay results as given in US11629144B2, “Crystal form of monomethanesulfonate of deuterated 3-(4,5-substituted aminopyrimidine)phenyl compound and preparation method therefor” (NANJING CHUANGTE PHARMACEUTICAL TECHNOLOGY CO., LTD., priority 2018, dated 2023).
Entries after “also recorded” stand apart in the source; their conditions may differ.

What was measured:
Assay type in all cases: physicochemical
[1] = Long-term lofting experiments; details: 25±5° C., RH 60%±10%; for Loss on diying: limit ≤1.0; for Maximum individual impurity: limit ≤2.50; for Total impurity: limit ≤4.0%; for Methanesulfonic acid (%): limit ≤15.0-15.8%; for Content (%): should not be less than 78.0%
Experimental: 4. Long-Term Lofting Experiments
A sample of the crystal form B of the monomethanesulfonate of the compound shown in formula I was placed in a petri dish under the conditions of the temperature being 25±5° C. and the relative humidity being 60%±10% and was sampled and tested at 0 hour, 3 months, and 6 months respectively, with the results shown in Table 2: […]

Accelerated lofting test = test: Accelerated lofting test; parameters: Maximum individual impurity / Loss on drying: unit not given here; details: 40±2° C., RH 75%±5%; for Loss on drying: limit ≤1.0; for Maximum individual impurity: limit ≤2.50; for Total impurity: limit ≤4.0%; for Methanesulfonic acid (%): limit ≤15.0-15.8%; for Content (%): should not be less than 78.0%
Experimental: 3. Accelerated Lofting Test
A sample of the crystal form B of the monomethanesulfonate of the compound shown in formula I was placed in a petri dish and was sampled and tested at 0 hour, 1 month, 2 months, 3 months, and 6 months respectively at a temperature of 40±2° C. and a relative humidity of 75%±5%, with the results shown in Table 1: […]

[2] = Crystal influence factor test (high temperature, high humidity, illumination, 15 days); details: high-humidity and illumination conditions for 15 days
Text: 2. Crystal Influence Factor Test

[3] = Stability differential scanning calorimetry (DSC) test; details: rate of temperature rise 10.00° C./min
Experimental: 1. Stability Differential Scanning Calorimetry (DSC) Test
Instrument: NETZSCH DSC 204 type differential thermal analyzer
Rate of temperature rise: 10.00° C./min

## [2H]C([2H])([2H])N(C)CCN(C)c1cc(OC)c(Nc2nccc(-c3cn4c5c(cccc35)CCC4)n2)cc1NC(=O)C=C [crystal form B]
[1]; 0 month
  Loss on diying: 0.08
  Maximum individual impurity: 1.62
  Total impurity: 2.55%
  Methanesulfonic acid (%): 15.5%
  Content (%): 80.5%
[1]; 3 months
  Loss on diying: 0.08
  Maximum individual impurity: 1.65
  Total impurity: 2.78%
  Methanesulfonic acid (%): 15.4%
  Content (%): 80.0%
[1]; 6 months
  Crystal form by X-ray powder diffraction pattern compared with before the experiments: the crystal form was not changed
  Loss on diying: 0.6
  Maximum individual impurity: 1.48
  Total impurity: 2.50%
  Methanesulfonic acid (%): 15.4%
  Content (%): 82.3%
[1]; up to 6 months
  Change of all investigation items: all investigation items have no obvious change
Accelerated lofting test; 0 month
  Loss on drying: 0.08
  Maximum individual impurity: 1.62
  Total impurity: 2.55%
  Methanesulfonic acid (%): 15.5%
  Content (%): 80.5%
Accelerated lofting test; 1 month
  Loss on drying: 0.03
  Maximum individual impurity: 1.87
  Total impurity: 3.12%
  Methanesulfonic acid (%): 15.2%
  Content (%): 82.2%
Accelerated lofting test; 2 months
  Loss on drying: 0.03
  Maximum individual impurity: 1.42
  Total impurity: 2.72%
  Methanesulfonic acid (%): 15.4%
  Content (%): 82.3%
Accelerated lofting test; 3 months
  Loss on drying: 0.03
  Maximum individual impurity: 1.62
  Total impurity: 2.72%
  Methanesulfonic acid (%): 15.4%
  Content (%): 79.5%
Accelerated lofting test; 6 months
  Crystal form by X-ray powder diffraction pattern compared with before the experiments: the crystal form was not changed
  Loss on drying: 0.14
  Maximum individual impurity: 1.61
  Total impurity: 2.74%
  Methanesulfonic acid (%): 15.4%
  Content (%): 80.8%
Accelerated lofting test; up to 6 months
  Change of all investigation items: all investigation items have no obvious change

## [2H]C([2H])([2H])N(C)CCN(C)c1cc(OC)c(Nc2nccc(-c3cn4c5c(cccc35)CCC4)n2)cc1NC(=O)C=C [crystal form A]
[2]
  Crystal transformation (X-ray diffraction pattern): can be converted into the crystal form B of the monomethanesulfonate under the high-temperature or high-humidity condition; also recorded: converted to the crystal form B of the monomethanesulfonate at high temperature and high humidity
[3]
  DSC peak (stability of heat exchange range): a single peak value is observed
